In patent US5873359A, “Methods and devices for treating pulmonary vasoconstriction and asthma” (The General Hospital Corporation, priority 1994, dated 1999):

Tests used:
[1] = system: pulmonary hypertension in ARDS; assay: Inhaled NO versus i.v. prostacyclin in adult with ARDS (first subject); type: in vivo, human
Experimental: First subject. The patient had suffered for three weeks from adult respiratory distress syndrome (ARDS) due to aspiration pneumonia. There was diffuse pulmonary edema and a large QVA /QT (30%). After 21 days of venovenous extracorporeal membrane oxygenator support (3 liters/min blood flow), the mean PAP was 55 mm Hg.
The short term effects of inhaled nitric oxide were compared with those of i.v. prostacyclin (PGI2; 5ng/kg/min). Mean pulmonary arterial pressure (PAP), right ventricular ejection fraction (RVEF) and gas exchange variables were evaluated. RVEF was assessed by thermodilution, and gas exchange alterations were analyzed using the multiple inert gas elimination technique (MIGET). MIGET and RVEF date were obtained on two different occasions. Ventilator settings were tidal volume 6 ml/kg, respiratory rate 14/min, Fi O2 0.4-0.48 and 5 cm H2 O of PEEP (positive end expiratory pressure).

airway resistance = assay: Methacholine infusion alone (stability of bronchoconstrictor model); type: in vivo, Hartley strain guinea pigs; conditions: methacholine infusion (FIG. 13)
Experimental: (§1) Male Hartley strain guinea pigs (300-440g body wt) were anesthetized with α-chloralose (50 mg/kg) and urethane (500 mg/kg) (Drazen et al., J. Appl. Physiol. 48:613-618, 1980). A tracheostomy was performed, and the animals were intubated with a tubing adaptor (ID 1.65 mm) and ventilated with a small animal ventilator (Harvard Apparatus, a division of Ealing Scientific, Natick, Mass.) at 8 ml/kg and 60 breaths/min. A jugular vein was cannulated for intravenous administration of drugs. The chest was opened by bilateral excision of a portion of the ribs anteriorly so that the lungs were exposed to atmospheric pressure (Shore and Drazen, J. Appl. Physiol. 67:2504-2511, 1989). A positive end expiratory pressure of 3-4 cmH2 O was provided.
(§2) Guinea pigs were then placed inside a plethysmograph (Amdur and Mead, Am. J. Physiol. 192:363-368, 1958), that was connected to a large reservoir containing copper mesh to maintain the plethysmograph isothermal. Plethysmograph pressure was measured with a differential pressure transducer (Celesco, Canoga Park, Calif.); the opposite side of this transducer was connected to a similar reservoir. Pressure at the airway opening was measured from a side tap in the tracheal canula. Transpulmonary pressure was measured with a differential pressure transducer (Celesco) as the difference between airway opening pressure and the pressure inside the plethysmograph. […]

[2] = system: persistent pulmonary hypertension of the newborn (PPHN); type: in vivo, human; conditions: standard dosage, infused, during nitric oxide
Experimental: First subject. Through compassionate use, nitric oxide was administered to an infant suffering from persistent pulmonary hypertension and congenital heart disease. As a result of prolonged ventilation, absence of a preductal arterial blood sampling site, and the existence of the atrial-ventricular (AV) canal, the patient was not included in the PPHN study mentioned above.
The patient was a 3225 gm, full term person who had been treated with extracorporeal membrane oxygenation (ECMO) because of the severity of their congenital heart disease and profound hypoxemia. They had been taken off ECMO and was being maintained intubated and ventilated in the newborn intensive care unit. They subsequently became progressively hypoxemic, as reflected in their post-ductal pulse oximetry (POX) values. By the time they were taken to the catheterization laboratory to confirm the existence of the A-V canal and to determine if some emergent cardiac surgery was needed, they were receiving maximal medical and ventilatory life support and remained dangerously hypoxemic. Under these circumstances, we were granted consent to treat the patient with nitric oxide.
Upon arrival to the catheterization laboratory, the patient was extremely cyanotic. They were treated with fentanyl, oxygen, hyperventilation and intravenous fluid boluses to stabilize them prior to administering NO.
We utilized a regulator to step-down the pressure of the NO into a blender, which allowed us to adjust the relative amounts of the 800 ppm NO/N2 and 100% N2 supplies. Treating the patient with pure oxygen, we increased the flow of N2 through a flow regulator into the inspiratory circuit of the breathing cicuit until the FI O2 was 0.9. This provided a 1:10 dilution of the nitrogen gas. We then used the blender to adjust the relative amounts of N2 and […] to provide 0 to 80 ppm of NO.

[3] = system: methacholine bronchoconstriction; assay: NO and terbutaline aerosol during methacholine infusion; type: in vivo, Hartley strain guinea pigs; conditions: NO gas before or after inhaled terbutaline
Experimental: as §1, §2

[4] = occasion #1, PGI2 5ng/kg/min i.v.
[5] = occasion #2, PGI2 5ng/kg/min i.v.

With CCCCC[C@H](O)/C=C/[C@@H]1[C@H]2C/C(=C/CCCC(=O)O)O[C@H]2C[C@H]1O [PGI2, prostacyclin, reference compound] the “QVA /QT” value ([1]; PGI2, i.v.) was 57%, the “PAP and RVEF” value ([1]; inhaled NO and i.v. PGI2, text) was “lowered PAP and improved RVEF” and the MAP [1, 4] was 81 mm Hg. For the same molecule, the PAP [1, 4] was 46 mm Hg, the PCWP [1, 4] was 12 mm Hg and the PaO2 [1, 4] was 74 torr. The “QA /QT” value [1, 4] was 57%, the “VD /VT” value [1, 4] was 51% and the “low VD /Q” value [1, 4] was 0%. For the same molecule, the MAP [1, 5] was 86 mm Hg, the PAP [1, 5] was 42 mm Hg and the PCWP [1, 5] was 14 mm Hg. For the same molecule, the PaO2 [1, 5] was 81 torr and the RVEF [1, 5] was 42%.

CC(=O)OC(C)C[N+](C)(C)C (centres unmarked) [methacholine] was tested, and the airway resistance (airway resistance) was “stably increasing levels of airway resistance for up to one hour”.

CCCCC[C@H](O)/C=C/[C@H]1[C@H](O)CC(=O)[C@@H]1CCCCCCC(=O)O [prostaglandin E1, reference compound] was tested, and the “effect of prostaglandin infusion on need for nitric oxide” value [2] was “nitric oxide could not be discontinued without the return of dangerously low oxygen saturations”.

With CC(C)(C)NCC(O)c1cc(O)cc(O)c1 (centres unmarked) [terbutaline, reference compound] the “bronchodilating effects of NO plus terbutaline” value [3] was “additive”.
